Measurements: patent publication US10894792B2, “Pesticidally active heterocyclic derivatives with sulfur containing substituents” (SYNGENTA PARTICIPATIONS AG, priority 2017, dated 2021)

Assays:
Type in all cases: in vivo
Plutella xylostella = experiment: Activity against Plutella xylostella (diamond back moth), artificial diet; details: 120 h, application rate of 200 ppm, L2 larvae on artificial diet, 5 days after infestation, read-out: effect in at least one of the two categories (mortality or growth inhibition)
Method: 24-well microtiter plates with artificial diet were treated with aqueous test solutions prepared from 10′000 ppm DMSO stock solutions by pipetting. After drying, the plates were infested with L2 larvae (10 to 15 per well). The samples were assessed for mortality and growth inhibition in comparison to untreated samples 5 days after infestation.

Myzus persicae [1] = experiment: Activity against Myzus persicae (green peach aphid), sprayed sunflower leaf discs; details: foliar, 144 h, application rate of 200 ppm, aphid population of mixed ages, 6 days after infestation
Method: Sunflower leaf discs were placed on agar in a 24-well microtiter plate and sprayed with aqueous test solutions prepared from 10′000 ppm DMSO stock solutions. After drying, the leaf discs were infested with an aphid population of mixed ages. The samples were assessed for mortality 6 days after infestation.

Myzus persicae [2] = experiment: Activity against Myzus persicae (green peach aphid), roots of pea seedlings in test solution; details: 144 h, test rate of 24 ppm, roots of infested pea seedlings in test solution, 6 days
Method: Roots of pea seedlings infested with an aphid population of mixed ages were placed directly in the aqueous test solutions prepared from 10′000 DMSO stock solutions. The samples were assessed for mortality 6 days after placing seedlings in test solutions.

[3] = test system: Frankliniella occidentalis; experiment: Activity against Frankliniella occidentalis (western flower thrips); details: foliar, 168 h, application rate of 200 ppm, sprayed sunflower leaf discs, population of mixed ages, 7 days after infestation
Method: Sunflower leaf discs were placed on agar in 24-well microtiter plates and sprayed with aqueous test solutions prepared from […] stock solutions. After drying the leaf discs were infested with a Frankliniella population of mixed ages. The samples were assessed for mortality 7 days after infestation.

Bemisia tabaci = experiment: Activity against Bemisia tabaci (cotton white fly); details: foliar, 144 h, application rate of 200 ppm, sprayed cotton leaf discs, adult white flies, 6 days after incubation
Method: Cotton leaf discs were placed on agar in 24-well microtiter plates and sprayed with aqueous test solutions prepared from 10′000 ppm DMSO stock solutions. After drying the leaf discs were infested with adult white flies. The samples were checked for mortality 6 days after incubation.

Euschistus heros = experiment: Activity against Euschistus heros (neotropical brown stink bug); details: 120 h, application rate of 200 ppm, sprayed soybean leaf, N-2 nymphs, 5 days after infestation, read-out: effect in at least one of the two categories (mortality or growth inhibition)
Method: Soybean leaf on agar in 24-well microtiter plates were sprayed with aqueous test solutions prepared from 10′000 ppm DMSO stock solutions. After drying the leaf were infested with N-2 nymphs. The samples were assessed for mortality and growth inhibition in comparison to untreated samples 5 days after infestation.

Diabrotica Balteata = experiment: Activity against Diabrotica balteata (corn root worm); details: 96 h, application rate of 200 ppm, sprayed maize sprouts, L2 larvae, 4 days after infestation, read-out: effect in at least one of the two categories (mortality or growth inhibition)
Method: Maize sprouts placed onto an agar layer in 24-well microtiter plates were treated with aqueous test solutions prepared from 10′000 ppm DMSO stock solutions by spraying. After drying, the plates were infested with L2 larvae (6 to 10 per well). The samples were assessed for mortality and growth inhibition in comparison to untreated samples 4 days after infestation.

Spodoptera littoralis = experiment: Activity against Spodoptera littoralis (Egyptian cotton leaf worm); details: foliar, 72 h, application rate of 200 ppm, sprayed cotton leaf discs, L1 larvae, 3 days after infestation, read-out: control (mortality, anti-feeding effect, or growth inhibition)
Method: Cotton leaf discs were placed onto agar in 24-well microtiter plates and sprayed with aqueous test solutions prepared from 10′000 ppm DMSO stock solutions. After drying the leaf discs were infested with five L1 larvae. The samples were assessed for mortality, anti-feeding effect, and growth inhibition in comparison to untreated samples 3 days after infestation. Control of Spodoptera littoralis by a test sample is given when at least one of the categories mortality, anti-feedant effect, and growth inhibition is higher than the untreated sample.

CCS(=O)(=O)c1cc(C(=O)N=S(C)(C)=O)cnc1-c1cn2cnc(C(F)(F)F)cc2n1 [Compound P4, N-[dimethyl(oxo)-λ^6-sulfanylidene]-5-ethylsulfonyl-6-[7-(trifluoromethyl)imidazo[1,2-c]pyrimidin-2-yl]pyridine-3-carboxamide]
≥ 80%: percent effect (mortality or growth inhibition) at 200 ppm (Plutella xylostella) | mortality at 200 ppm (Myzus persicae [1]) | mortality at 24 ppm (Myzus persicae [2]) | mortality at 200 ppm [3] | mortality at 200 ppm (Bemisia tabaci) | percent effect (mortality or growth inhibition) at 200 ppm (Euschistus heros) | percent effect (mortality or growth inhibition) at 200 ppm (Diabrotica Balteata) | percent control (mortality, anti-feedant effect or growth inhibition) at 200 ppm (Spodoptera littoralis)

CCS(=O)(=O)c1cc(C(=O)N=S(C)(C)=O)ccc1-c1cn2cnc(C(F)(F)F)cc2n1 [Compound P7, N-[dimethyl(oxo)-λ^6-sulfanylidene]-3-ethylsulfonyl-4-[7-(trifluoromethyl)imidazo[1,2-c]pyrimidin-2-yl]benzamide]
≥ 80%: percent effect (mortality or growth inhibition) at 200 ppm (Plutella xylostella) | mortality at 200 ppm (Myzus persicae [1]) | mortality at 24 ppm (Myzus persicae [2]) | mortality at 200 ppm [3] | percent effect (mortality or growth inhibition) at 200 ppm (Diabrotica Balteata)

CCS(=O)(=O)c1cc(C(=O)N=S(C)(=O)CC)cnc1-c1nc2cc(C(F)(F)F)nnc2n1C (stereo not shown) [Compound P9, N-(ethyl-methyl-oxo-λ^6-sulfanylidene)-5-ethylsulfonyl-6-[7-methyl-3-(trifluoromethyl)imidazo[4,5-c]pyridazin-6-yl]pyridine-3-carboxamide]
≥ 80%: percent effect (mortality or growth inhibition) at 200 ppm (Plutella xylostella) | mortality at 200 ppm (Myzus persicae [1]) | mortality at 24 ppm (Myzus persicae [2]) | mortality at 200 ppm [3] | mortality at 200 ppm (Bemisia tabaci) | percent effect (mortality or growth inhibition) at 200 ppm (Euschistus heros) | percent effect (mortality or growth inhibition) at 200 ppm (Diabrotica Balteata)

CCS(CC)=NC(=O)c1cnc(-c2nc3cc(C(F)(F)F)ncc3n2C)c(S(=O)(=O)CC)c1 [Compound P10, N-(diethyl-λ^4-sulfanylidene)-5-ethylsulfonyl-6-[3-methyl-6-(trifluoromethyl)imidazo[4,5-c]pyridin-2-yl]pyridine-3-carboxamide]
≥ 80%: percent effect (mortality or growth inhibition) at 200 ppm (Plutella xylostella) | mortality at 200 ppm (Myzus persicae [1]) | mortality at 24 ppm (Myzus persicae [2]) | mortality at 200 ppm [3] | mortality at 200 ppm (Bemisia tabaci) | percent effect (mortality or growth inhibition) at 200 ppm (Euschistus heros)

CCS(=O)(=O)c1cc(C(=O)N=S2(=O)CCC2)cnc1-c1cn2cnc(C(F)(F)F)cc2n1 [Compound P13, 5-ethylsulfonyl-N-(1-oxothietan-1-ylidene)-6-[7-(trifluoromethyl)imidazo[1,2-c]pyrimidin-2-yl]pyridine-3-carboxamide]
≥ 80%: percent effect (mortality or growth inhibition) at 200 ppm (Plutella xylostella) | mortality at 200 ppm (Myzus persicae [1]) | mortality at 24 ppm (Myzus persicae [2]) | percent effect (mortality or growth inhibition) at 200 ppm (Euschistus heros) | percent effect (mortality or growth inhibition) at 200 ppm (Diabrotica Balteata) | percent control (mortality, anti-feedant effect or growth inhibition) at 200 ppm (Spodoptera littoralis)

CCS(=O)(=O)c1cc(C(=O)N=S2(=O)CCC2)cnc1-c1nc2cc(C(F)(F)F)cnc2n1C [Compound P16, 5-ethylsulfonyl-6-[3-methyl-6-(trifluoromethyl)imidazo[4,5-b]pyridin-2-yl]-N-(1-oxothietan-1-ylidene)pyridine-3-carboxamide]
≥ 80%: percent effect (mortality or growth inhibition) at 200 ppm (Plutella xylostella) | mortality at 200 ppm (Myzus persicae [1]) | mortality at 24 ppm (Myzus persicae [2]) | mortality at 200 ppm (Bemisia tabaci) | percent effect (mortality or growth inhibition) at 200 ppm (Euschistus heros) | percent effect (mortality or growth inhibition) at 200 ppm (Diabrotica Balteata) | percent control (mortality, anti-feedant effect or growth inhibition) at 200 ppm (Spodoptera littoralis)

CCS(=O)(=O)c1cc(C(=O)N=S(=O)(CC)CC)cnc1-c1nc2cc(C(F)(F)F)cnc2n1C [Compound P19, N-[diethyl(oxo)-λ^6-sulfanylidene]-5-ethylsulfonyl-6-[3-methyl-6-(trifluoromethyl)imidazo[4,5-b]pyridin-2-yl]pyridine-3-carboxamide]
≥ 80%: percent effect (mortality or growth inhibition) at 200 ppm (Plutella xylostella) | mortality at 200 ppm (Myzus persicae [1]) | mortality at 24 ppm (Myzus persicae [2]) | mortality at 200 ppm [3] | mortality at 200 ppm (Bemisia tabaci) | percent effect (mortality or growth inhibition) at 200 ppm (Euschistus heros)

CCS(=O)(=O)c1cc(C(=O)N=S(=O)(CC)CC)cnc1-c1cn2cnc(C(F)(F)F)cc2n1 [Compound P21, N-[diethyl(oxo)-λ^6-sulfanylidene]-5-ethylsulfonyl-6-[7-(trifluoromethyl)imidazo[1,2-c]pyrimidin-2-yl]pyridine-3-carboxamide]
≥ 80%: percent effect (mortality or growth inhibition) at 200 ppm (Plutella xylostella) | percent effect (mortality or growth inhibition) at 200 ppm (Euschistus heros) | percent control (mortality, anti-feedant effect or growth inhibition) at 200 ppm (Spodoptera littoralis)

CCS(=O)(=O)c1cc(C(=O)N=S(C)(C)=O)ccc1-c1nc2cc(C(F)(F)F)cnc2n1C [Compound P22, N-[dimethyl(oxo)-λ^6-sulfanylidene]-3-ethylsulfonyl-4-[3-methyl-6-(trifluoromethyl)imidazo[4,5-b]pyridin-2-yl]benzamide]
≥ 80%: percent effect (mortality or growth inhibition) at 200 ppm (Plutella xylostella) | mortality at 200 ppm (Myzus persicae [1]) | mortality at 24 ppm (Myzus persicae [2]) | mortality at 200 ppm [3] | mortality at 200 ppm (Bemisia tabaci) | percent effect (mortality or growth inhibition) at 200 ppm (Euschistus heros) | percent effect (mortality or growth inhibition) at 200 ppm (Diabrotica Balteata)

CCS(=O)(=O)c1cc(C(=O)N=S(=O)(CC)CC)ccc1-c1nc2cc(C(F)(F)F)cnc2n1C [Compound P23, N-[diethyl(oxo)-λ^6-sulfanylidene]-3-ethylsulfonyl-4-[3-methyl-6-(trifluoromethyl)imidazo[4,5-b]pyridin-2-yl]benzamide]
≥ 80%: percent effect (mortality or growth inhibition) at 200 ppm (Plutella xylostella) | mortality at 200 ppm (Myzus persicae [1]) | mortality at 24 ppm (Myzus persicae [2]) | mortality at 200 ppm (Bemisia tabaci) | percent effect (mortality or growth inhibition) at 200 ppm (Euschistus heros) | percent effect (mortality or growth inhibition) at 200 ppm (Diabrotica Balteata)

CCS(=O)(=O)c1cc(C(=O)N=S(C)(C)=O)cnc1-n1cc2cnc(C(F)(F)F)cc2n1 [Compound P24, N-[dimethyl(oxo)-λ^6-sulfanylidene]-5-ethylsulfonyl-6-[6-(trifluoromethyl)pyrazolo[4,3-c]pyridin-2-yl]pyridine-3-carboxamide]
≥ 80%: percent effect (mortality or growth inhibition) at 200 ppm (Plutella xylostella) | percent effect (mortality or growth inhibition) at 200 ppm (Diabrotica Balteata) | percent control (mortality, anti-feedant effect or growth inhibition) at 200 ppm (Spodoptera littoralis)
